US12447153B2, “HER2 mutation inhibitors” (Array BioPharma Inc., priority 2021, dated 2025)
pIC50: −log10 of the molar value.

Legend:
ErbB2 WT = ErbB2 WT (Homo sapiens (Human), UniProt P04626); experiment: ErbB Enzyme Assay (HTRF KinEASE-TK), Assay 2; format: biochemical
EGFR = EGFR (Homo sapiens (Human), UniProt P00533); experiment: ErbB Enzyme Assay (HTRF KinEASE-TK), Assay 3; format: biochemical
[1] = target: ErbB2 with Exon 20 YVMA insertion (HER2-YVMA) (Homo sapiens (Human), UniProt P04626, INS775YVMA); experiment: Cellular Phosphorylation Assay, Assay 4 (constitutive ErbB2 phosphorylation, NIH 3T3 cells); format: cell-based
EGFR wild type (EGFR WT) = EGFR wild type (EGFR WT) (Homo sapiens (Human), UniProt P00533); experiment: Cellular Phosphorylation Assay, Assay 5 (EGF-stimulated EGFR phosphorylation, NIH 3T3 cells); format: cell-based
BCRP = BCRP (Homo sapiens (Human), UniProt Q9UNQ0); experiment: BCRP MDCKII efflux assay (Assay 7); format: in vitro ADME; conditions: dog; efflux ratio Papp(B-A)/Papp(A-B), BCRP MDCKII cells; read-out: Assay 7 Pe Ratio
Procedure: Assay conditions included with and without the BCRP-specific inhibitor, KO143, at a concentration of 0.3 μM to ascertain the contribution of BCRP to the efflux value of the test compound.
Final organic concentration in the assay was 1%.

[2] = EGF-stimulated EGFR WT phosphorylation
[3] = cellular ErbB2 YVMA phosphorylation
[4] = cellular EGFR WT phosphorylation, EGF-stimulated

EGFR wild type (EGFR WT), sequence (P00533 25-1210): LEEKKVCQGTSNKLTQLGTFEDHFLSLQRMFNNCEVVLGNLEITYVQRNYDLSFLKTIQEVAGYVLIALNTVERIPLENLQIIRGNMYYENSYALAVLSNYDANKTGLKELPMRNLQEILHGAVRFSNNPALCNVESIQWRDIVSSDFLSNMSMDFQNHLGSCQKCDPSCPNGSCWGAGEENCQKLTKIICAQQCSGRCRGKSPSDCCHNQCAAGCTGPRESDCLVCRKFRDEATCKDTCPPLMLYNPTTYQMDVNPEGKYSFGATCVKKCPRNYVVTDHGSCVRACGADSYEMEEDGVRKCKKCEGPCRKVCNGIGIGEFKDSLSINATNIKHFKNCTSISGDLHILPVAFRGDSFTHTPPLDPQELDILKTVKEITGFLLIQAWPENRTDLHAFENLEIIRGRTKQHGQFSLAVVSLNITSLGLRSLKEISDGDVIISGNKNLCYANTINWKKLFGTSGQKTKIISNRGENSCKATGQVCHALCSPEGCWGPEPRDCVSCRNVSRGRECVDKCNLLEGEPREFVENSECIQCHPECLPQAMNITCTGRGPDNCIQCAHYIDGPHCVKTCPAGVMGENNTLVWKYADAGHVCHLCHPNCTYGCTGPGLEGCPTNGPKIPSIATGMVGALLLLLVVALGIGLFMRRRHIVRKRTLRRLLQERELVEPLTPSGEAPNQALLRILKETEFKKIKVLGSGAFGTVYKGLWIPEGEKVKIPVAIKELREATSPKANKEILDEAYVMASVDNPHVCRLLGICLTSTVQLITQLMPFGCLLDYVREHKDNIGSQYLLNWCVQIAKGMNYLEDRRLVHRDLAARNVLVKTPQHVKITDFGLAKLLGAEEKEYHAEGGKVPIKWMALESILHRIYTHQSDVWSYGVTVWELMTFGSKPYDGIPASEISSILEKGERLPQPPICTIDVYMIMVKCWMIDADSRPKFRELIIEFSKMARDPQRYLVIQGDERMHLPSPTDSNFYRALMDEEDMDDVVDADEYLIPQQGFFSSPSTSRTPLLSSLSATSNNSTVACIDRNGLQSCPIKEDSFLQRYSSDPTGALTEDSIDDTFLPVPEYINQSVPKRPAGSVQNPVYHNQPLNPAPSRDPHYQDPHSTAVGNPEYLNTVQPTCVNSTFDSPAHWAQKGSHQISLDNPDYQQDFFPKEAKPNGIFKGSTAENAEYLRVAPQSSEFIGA
EGFR, sequence (P00533 25-1210): as above
ErbB2 with Exon 20 YVMA insertion (HER2-YVMA), sequence (P04626 other isoform, or with tags, fused parts or gaps ins YVMA behind 775): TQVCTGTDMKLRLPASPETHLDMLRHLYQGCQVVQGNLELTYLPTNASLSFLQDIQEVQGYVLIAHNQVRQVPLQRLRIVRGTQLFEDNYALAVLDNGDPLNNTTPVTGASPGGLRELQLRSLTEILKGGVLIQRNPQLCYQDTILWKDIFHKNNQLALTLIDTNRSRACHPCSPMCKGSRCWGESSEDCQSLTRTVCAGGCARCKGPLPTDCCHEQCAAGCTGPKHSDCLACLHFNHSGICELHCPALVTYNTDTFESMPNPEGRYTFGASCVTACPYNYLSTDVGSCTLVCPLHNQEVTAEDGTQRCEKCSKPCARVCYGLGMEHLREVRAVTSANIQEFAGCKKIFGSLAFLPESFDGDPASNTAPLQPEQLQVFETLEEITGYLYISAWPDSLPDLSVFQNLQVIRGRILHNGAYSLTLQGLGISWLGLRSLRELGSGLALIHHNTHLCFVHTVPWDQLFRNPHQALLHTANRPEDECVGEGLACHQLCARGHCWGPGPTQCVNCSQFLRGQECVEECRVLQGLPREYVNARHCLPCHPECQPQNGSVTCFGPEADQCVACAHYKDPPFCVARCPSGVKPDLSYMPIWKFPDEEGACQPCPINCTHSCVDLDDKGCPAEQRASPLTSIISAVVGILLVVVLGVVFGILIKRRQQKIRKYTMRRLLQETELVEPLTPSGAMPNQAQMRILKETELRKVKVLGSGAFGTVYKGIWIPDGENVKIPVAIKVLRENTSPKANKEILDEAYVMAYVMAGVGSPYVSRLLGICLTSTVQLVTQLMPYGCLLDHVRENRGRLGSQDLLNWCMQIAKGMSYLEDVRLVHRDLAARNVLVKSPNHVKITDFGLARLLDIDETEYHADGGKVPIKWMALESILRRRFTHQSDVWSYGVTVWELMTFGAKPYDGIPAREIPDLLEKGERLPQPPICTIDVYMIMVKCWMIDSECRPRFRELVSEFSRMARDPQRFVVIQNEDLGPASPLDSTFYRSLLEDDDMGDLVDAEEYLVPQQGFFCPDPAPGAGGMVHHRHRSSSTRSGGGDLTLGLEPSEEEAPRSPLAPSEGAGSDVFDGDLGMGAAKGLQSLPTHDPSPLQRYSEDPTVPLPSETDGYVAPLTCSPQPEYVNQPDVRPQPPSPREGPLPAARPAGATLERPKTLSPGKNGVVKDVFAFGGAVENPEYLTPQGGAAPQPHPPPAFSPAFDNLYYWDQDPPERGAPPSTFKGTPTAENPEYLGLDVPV
BCRP, sequence (Q9UNQ0 whole entry): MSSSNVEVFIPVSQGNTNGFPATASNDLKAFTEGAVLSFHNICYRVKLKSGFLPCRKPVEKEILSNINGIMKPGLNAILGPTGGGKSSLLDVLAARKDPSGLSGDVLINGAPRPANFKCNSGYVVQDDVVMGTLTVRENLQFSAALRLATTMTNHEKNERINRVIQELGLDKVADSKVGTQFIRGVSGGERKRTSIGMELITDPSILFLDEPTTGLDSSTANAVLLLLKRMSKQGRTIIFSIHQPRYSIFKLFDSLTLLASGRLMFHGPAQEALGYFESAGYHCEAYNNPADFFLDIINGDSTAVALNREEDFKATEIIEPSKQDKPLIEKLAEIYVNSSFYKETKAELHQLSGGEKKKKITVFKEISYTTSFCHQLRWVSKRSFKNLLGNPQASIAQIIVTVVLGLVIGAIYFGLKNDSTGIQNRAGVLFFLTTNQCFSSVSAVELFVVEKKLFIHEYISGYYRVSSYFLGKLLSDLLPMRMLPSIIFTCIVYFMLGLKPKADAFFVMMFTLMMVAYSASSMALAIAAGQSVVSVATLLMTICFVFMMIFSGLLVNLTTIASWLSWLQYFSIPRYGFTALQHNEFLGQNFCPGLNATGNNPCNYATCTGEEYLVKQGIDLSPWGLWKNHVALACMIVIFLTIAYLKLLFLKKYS

SMILES | pIC50 (ErbB2 WT; ErbB2 WT enzyme) | pIC50 (EGFR; EGFR enzyme) | pIC50 ([1]; ErbB2 YVMA phosphorylation) | pIC50 (EGFR wild type (EGFR WT); [2]) | efflux ratio at 2 h, 1 µM (BCRP) | pIC50 (ErbB2 WT; ErbB2 WT enzyme assay) | pIC50 (EGFR; EGFR enzyme assay) | pIC50 [1, 3] | pIC50 (EGFR wild type (EGFR WT); [4])
C=CC(=O)N1C2CC1CN(c1ccc3ncnc(Nc4ccc(Oc5ccc6c(c5)ncn6C)c(Cl)c4F)c3n1)C2 [Example 325] | – | – | – | – | 10.3 | 7.67 | 6.59 | 7.94 | 6.26
C=CC(=O)N1CC2CCC(C1)N2c1ccc2ncnc(Nc3cc(Cl)c(Oc4ccn5ncnc5c4)cc3F)c2n1 [Example 441] | – | – | – | – | 7.3 | 7.51 | 6.17 | 7.75 | 6.11
C=CC(=O)N1C[C@H]2CC[C@@H]1C[C@@H]2c1ccc2ncnc(Nc3cc(C)c(Oc4cnc5c(c4)ncn5C)cc3F)c2n1 [Example 420] | – | – | – | – | 2.5 | 6.54 | ≤ 5.00 | 7.47 | ≤ 5.30
C=CC(=O)N1CCC(c2ccc3ncnc(Nc4ccc(Oc5ccc6c(c5)ncn6C)c(C)c4)c3n2)CC1C (centres unmarked) [Example 123, 1-(2-methyl-4-(4-((3-methyl-4-((1-methyl-1H-benzo[d]imidazol-5-yl)oxy)phenyl)amino)pyrido[3,2-d]pyrimidin-6-yl)piperidin-1-yl)prop-2-en-1-one] | 7.22 | ≤ 5.00 | 8.12 | ≤ 5.30 | 7.3 | – | – | – | –
C=CC(=O)N1CCN(c2ccc3ncnc(Nc4ccc(Oc5ccn6ncnc6c5)c(C)c4)c3n2)CC1(C)C [Example 77, 1-(4-(4-((4-([1,2,4]triazolo[1,5-a]pyridin-7-yloxy)-3-methylphenyl)amino)pyrido[3,2-d]pyrimidin-6-yl)-2,2-dimethylpiperazin-1-yl)prop-2-en-1-one] | 8.05 | 5.59 | 8.03 | 6.06 | 11.6 | – | – | – | –
C=CC(=O)N(C)[C@H]1CCN(c2ccc3ncnc(Nc4cc(C)c(Oc5ccn6ncnc6c5)cc4F)c3n2)C1 [Example 351] | – | – | – | – | 6.4 | 7.18 | 5.54 | 7.51 | ≤ 5.30
C=CC(=O)N1CC[C@@H](c2ccc3ncnc(Nc4ccc(Oc5ccc6c(c5)ncn6C)c(C)c4F)c3n2)C1 (racemic) [Example 131, rac-(R)-1-(3-(4-((2-fluoro-3-methyl-4-((1-methyl-1H-benzo[d]imidazol-5-yl)oxy)phenyl)amino)pyrido[3,2-d]pyrimidin-6-yl)pyrrolidin-1-yl)prop-2-en-1-one] | 7.25 | 5.67 | 8.02 | 5.32 | 6.4 | – | – | – | –
C=CC(=O)N1C[C@H]2C[C@@H]1[C@H](c1ccc3ncnc(Nc4ccc(Oc5ccn6ncnc6c5)c(C)c4)c3n1)C2 [Example 405] | – | – | – | – | 13.7 | 7.71 | 5.79 | 7.76 | 5.34
C=CC(=O)N1CC2CCC(C1)N2c1ccc2ncnc(Nc3ccc(Oc4ccn5ncnc5c4)c(C)c3F)c2n1 [Example 455] | – | – | – | – | 9.6 | 8.39 | 7.06 | 8.32 | 6.71
C=CC(=O)N1C[C@H]2CC[C@@H]1CN2c1ccc2ncnc(Nc3ccc(Oc4ccn5ncnc5c4)c(Cl)c3F)c2n1 [Example 328] | – | – | – | – | 7.7 | 7.30 | 6.16 | 7.80 | 5.82
C=CC(=O)N1[C@@H]2CC[C@H]1C[C@@H](c1ccc3ncnc(Nc4ccc(Oc5cnc6c(c5)ncn6C)c(C)c4)c3n1)C2 [Example 219, 1-((1R,3r,5S)-3-(4-((3-methyl-4-((3-methyl-3H-imidazo[4,5-b]pyridin-6-yl)oxy)phenyl)amino)pyrido[3,2-d]pyrimidin-6-yl)-8-azabicyclo[3.2.1]octan-8-yl)prop-2-en-1-one] | 6.95 | 5.44 | 7.70 | ≤ 5.30 | 9.3 | – | – | – | –
C=CC(=O)N1C2CC1CN(c1ccc3ncnc(Nc4ccc(Oc5ccn6ncnc6c5)c(C)c4F)c3n1)C2 [Example 47, 1-(3-(4-((4-([1,2,4]triazolo[1,5-a]pyridin-7-yloxy)-2-fluoro-3-methylphenyl)amino)pyrido[3,2-d]pyrimidin-6-yl)-3,6-diazabicyclo[3.1.1]heptan-6-yl)prop-2-en-1-one] | 7.22 | 5.43 | 7.86 | 5.67 | 9.6 | – | – | – | –

Now from value to compound:

pIC50 (ErbB2 WT; ErbB2 WT enzyme) | pIC50 (EGFR; EGFR enzyme) | pIC50 ([1]; ErbB2 YVMA phosphorylation) | pIC50 (EGFR wild type (EGFR WT); [2]) | efflux ratio at 2 h, 1 µM (BCRP) | pIC50 (ErbB2 WT; ErbB2 WT enzyme assay) | pIC50 (EGFR; EGFR enzyme assay) | pIC50 [1, 3] | pIC50 (EGFR wild type (EGFR WT); [4]) | SMILES
7.73 | 5.11 | 8.22 | ≤ 5.30 | 10.1 | – | – | – | – | C=CC(=O)N1[C@H](C)CN(c2ccc3ncnc(Nc4ccc(Oc5ccc6c(c5)ncn6C)c(C)c4)c3n2)C[C@@H]1C [Example 106, 1-((2S,6R)-2,6-dimethyl-4-(4-((3-methyl-4-((1-methyl-1H-benzo[d]imidazol-5-yl)oxy)phenyl)amino)pyrido[3,2-d]pyrimidin-6-yl)piperazin-1-yl)prop-2-en-1-one]
– | – | – | – | 14.2 | 7.84 | 5.86 | 7.81 | 5.84 | C=CC(=O)N1CCN(c2ccc3ncnc(Nc4cc(Cl)c(Oc5ccn6ncnc6c5)cc4F)c3n2)C[C@@H]1COC [Example 346]
– | – | – | – | 7.4 | 8.01 | 5.97 | 8.26 | 6.09 | C=CC(=O)N1CCN(c2ccc3ncnc(Nc4ccc(Oc5ccn6ncnc6c5)c(C)c4F)c3n2)C[C@@H]1COC [Example 362]
6.68 | 5.64 | 7.67 | 5.76 | 6.8 | – | – | – | – | C=CC(=O)N1CCC(Oc2nc3c(Nc4ccc(Oc5ccc6cn(C)nc6c5)c(C)c4)ncnc3cc2OC)CC1 [Example 157, 1-(4-((7-methoxy-4-((3-methyl-4-((2-methyl-2H-indazol-6-yl)oxy)phenyl)amino)pyrido[3,2-d]pyrimidin-6-yl)oxy)piperidin-1-yl)prop-2-en-1-one]
– | – | – | – | 16 | 7.42 | 5.82 | 7.69 | ≤ 5.30 | C=CC(=O)N1C[C@H]2C[C@@H]1[C@H](c1ccc3ncnc(Nc4ccc(Oc5cnc6c(c5)ncn6C)c(C)c4)c3n1)C2 [Example 407]
– | – | – | – | 7.2 | 5.93 | ≤ 5.00 | 7.65 | ≤ 5.30 | C=CC(=O)N1C[C@H]2C[C@@H]1CN(c1ccc3ncnc(Nc4cc(Cl)c(Oc5cnc6c(c5)ncn6C)cc4F)c3n1)C2 [Example 294]
8.00 | 5.53 | 7.67 | ≤ 5.30 | 41.8 | – | – | – | – | C=CC(=O)N1CCC2CN(c3ccc4ncnc(Nc5ccc(Oc6ccn7ncnc7c6)c(Cl)c5)c4n3)CC21 (centres unmarked) [Example 70, 1-(5-(4-((4-([1,2,4]triazolo[1,5-a]pyridin-7-yloxy)-3-chlorophenyl)amino)pyrido[3,2-d]pyrimidin-6-yl)hexahydropyrrolo[3,4-b]pyrrol-1(2H)-yl)prop-2-en-1-one]
7.43 | 5.98 | 7.68 | 6.21 | 17.5 | – | – | – | – | C=CC(=O)N1CCN(c2nc3c(Nc4ccc(Oc5ccn6ncnc6c5)c(C)c4F)ncnc3cc2OC)CC1 [Example 152, 1-(4-(4-((4-([1,2,4]triazolo[1,5-a]pyridin-7-yloxy)-2-fluoro-3-methylphenyl)amino)-7-methoxypyrido[3,2-d]pyrimidin-6-yl)piperazin-1-yl)prop-2-en-1-one]
– | – | – | – | 6.2 | 6.34 | 5.98 | 7.89 | ≤ 5.30 | C=CC(=O)N1CCN(c2ccc3ncnc(Nc4cc(Cl)c(Oc5cnc6c(c5)ncn6C)cc4F)c3n2)CC1(C)C [Example 452]
6.92 | ≤ 5.00 | 7.69 | ≤ 5.30 | 8.3 | – | – | – | – | C=CC(=O)N1CC[C@H]2CN(c3ccc4ncnc(Nc5cc(C)c(Oc6ccn7ncnc7c6)cc5F)c4n3)C[C@H]21 [Example 26, 1-((3aS,6aS)-5-(4-((4-([1,2,4]triazolo[1,5-a]pyridin-7-yloxy)-2-fluoro-5-methylphenyl)amino)pyrido[3,2-d]pyrimidin-6-yl)hexahydropyrrolo[3,4-b]pyrrol-1(2H)-yl)prop-2-en-1-one]
– | – | – | – | 13.4 | 7.50 | ≤ 5.00 | 8.06 | ≤ 5.30 | C=CC(=O)N1CCN(c2ccc3ncnc(Nc4cc(C)c(Oc5cnc6c(c5)ncn6C)cc4F)c3n2)CC12CC2 [Example 354]
6.73 | ≤ 5.00 | 7.52 | ≤ 5.30 | 37.5 | – | – | – | – | C=CC(=O)N1CCCN(c2ccc3ncnc(Nc4ccc(Oc5cnc6c(c5)ncn6C)c(Cl)c4)c3n2)CC1 [Example 113, 1-(4-(4-((3-chloro-4-((3-methyl-3H-imidazo[4,5-b]pyridin-6-yl)oxy)phenyl)amino)pyrido[3,2-d]pyrimidin-6-yl)-1,4-diazepan-1-yl)prop-2-en-1-one]
7.80 | 5.94 | 8.42 | 6.06 | 42.7 | – | – | – | – | C=CC(=O)N1CCN(c2ccc3ncnc(Nc4ccc(Oc5cnc6c(c5)ncn6C)c(Cl)c4)c3n2)CC1 [Example 33, 1-(4-(4-((3-chloro-4-((3-methyl-3H-imidazo[4,5-b]pyridin-6-yl)oxy)phenyl)amino)pyrido[3,2-d]pyrimidin-6-yl)piperazin-1-yl)prop-2-en-1-one]
